According to PubChem BioAssay (NCI):
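Cells were grown in 96-well plates and exposed to each compound for 48 hours at five concentrations; endpoints were interpolated linearly between bracketing concentrations, or set to the highest concentration if not reached. The concentration for 50% growth inhibition is given as GI50. TGI is the concentration that stops growth completely.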

Tests used:
Experiment in all cases: DTP human tumour cell line panel, 48 h
786-0 renal = tested on: 786-0 renal
A498 renal = tested on: A498 renal
A549 NSCLC = tested on: A549 NSCLC
ACHN renal = tested on: ACHN renal
BT-549 breast = tested on: BT-549 breast
CAKI-1 renal = tested on: CAKI-1 renal
CCRF-CEM leukemia = tested on: CCRF-CEM leukemia
COLO 205 colon = tested on: COLO 205 colon
DU-145 prostate = tested on: DU-145 prostate
EKVX NSCLC = tested on: EKVX NSCLC
HCC-2998 colon = tested on: HCC-2998 colon
HCT-116 colon = tested on: HCT-116 colon
HCT-15 colon = tested on: HCT-15 colon
HOP-62 NSCLC = tested on: HOP-62 NSCLC
HOP-92 NSCLC = tested on: HOP-92 NSCLC
HS 578T breast = tested on: HS 578T breast
HT29 colon = tested on: HT29 colon
IGROV1 ovarian = tested on: IGROV1 ovarian
KM12 colon = tested on: KM12 colon
LOX IMVI melanoma = tested on: LOX IMVI melanoma
M14 melanoma = tested on: M14 melanoma
MCF7 breast = tested on: MCF7 breast
MDA-MB-231 breast = tested on: MDA-MB-231 breast
MDA-MB-435 = tested on: MDA-MB-435
MOLT-4 leukemia = tested on: MOLT-4 leukemia
NCI-H226 lung = tested on: NCI-H226 lung
NCI-H23 lung = tested on: NCI-H23 lung
NCI-H460 lung = tested on: NCI-H460 lung
NCI-H522 lung = tested on: NCI-H522 lung
NCI/ADR-RES ovarian = tested on: NCI/ADR-RES ovarian
OVCAR-3 ovarian = tested on: OVCAR-3 ovarian
OVCAR-4 ovarian = tested on: OVCAR-4 ovarian
OVCAR-5 ovarian = tested on: OVCAR-5 ovarian
OVCAR-8 ovarian = tested on: OVCAR-8 ovarian
PC-3 prostate = tested on: PC-3 prostate
RPMI-8226 leukemia = tested on: RPMI-8226 leukemia
RXF 393 renal = tested on: RXF 393 renal
SF-268 CNS = tested on: SF-268 CNS
SF-295 CNS = tested on: SF-295 CNS
SF-539 CNS = tested on: SF-539 CNS
SK-MEL-2 melanoma = tested on: SK-MEL-2 melanoma
SK-MEL-28 melanoma = tested on: SK-MEL-28 melanoma
SK-MEL-5 melanoma = tested on: SK-MEL-5 melanoma
SK-OV-3 ovarian = tested on: SK-OV-3 ovarian
SN12C renal = tested on: SN12C renal
SNB-19 CNS = tested on: SNB-19 CNS
SNB-75 CNS = tested on: SNB-75 CNS
SW-620 colon = tested on: SW-620 colon
T-47D breast = tested on: T-47D breast
U251 CNS = tested on: U251 CNS
UACC-257 melanoma = tested on: UACC-257 melanoma
UACC-62 melanoma = tested on: UACC-62 melanoma
UO-31 renal = tested on: UO-31 renal

O=C1CS/C(=N/S(=O)(=O)c2ccc(N3N=C4c5ccccc5CC4C3c3cccs3)cc2)N1C(=O)c1ccccc1 (stereo unspecified)
GI50 (786-0 renal): 48.8 µM
TGI (786-0 renal): > 100 µM
GI50 (A498 renal): 23.6 µM
TGI (A498 renal): 94.6 µM
GI50 (A549 NSCLC): 70.8 µM
TGI (A549 NSCLC): > 100 µM
GI50 (ACHN renal): 39 µM
TGI (ACHN renal): > 100 µM
GI50 (BT-549 breast): 33.5 µM
TGI (BT-549 breast): > 100 µM
GI50 (CAKI-1 renal): 63.9 µM
TGI (CAKI-1 renal): > 100 µM
GI50 (CCRF-CEM leukemia): 37.5 µM
TGI (CCRF-CEM leukemia): > 100 µM
GI50 (COLO 205 colon): 51.1 µM
TGI (COLO 205 colon): > 100 µM
GI50 (DU-145 prostate): 38.2 µM
TGI (DU-145 prostate): > 100 µM
GI50 (EKVX NSCLC): 42.4 µM
TGI (EKVX NSCLC): > 100 µM
GI50 (HCC-2998 colon): 17.6 µM
TGI (HCC-2998 colon): 46.6 µM
GI50 (HCT-116 colon): 22 µM
TGI (HCT-116 colon): 55.9 µM
GI50 (HCT-15 colon): 56.3 µM
TGI (HCT-15 colon): > 100 µM
GI50 (HOP-62 NSCLC): 32.9 µM
TGI (HOP-62 NSCLC): 63 µM
GI50 (HOP-92 NSCLC): 37.3 µM
TGI (HOP-92 NSCLC): > 100 µM
GI50 (HS 578T breast): 25.3 µM
TGI (HS 578T breast): > 100 µM
GI50 (HT29 colon): 76.1 µM
TGI (HT29 colon): > 100 µM
GI50 (IGROV1 ovarian): 28.3 µM
TGI (IGROV1 ovarian): > 100 µM
GI50 (KM12 colon): 21.4 µM
TGI (KM12 colon): 56.4 µM
GI50 (LOX IMVI melanoma): 22.7 µM
TGI (LOX IMVI melanoma): 54 µM
GI50 (M14 melanoma): 44.7 µM
TGI (M14 melanoma): > 100 µM
GI50 (MCF7 breast): > 100 µM
TGI (MCF7 breast): > 100 µM
GI50 (MDA-MB-231 breast): 44.6 µM
TGI (MDA-MB-231 breast): > 100 µM
GI50 (MDA-MB-435): 37.4 µM
TGI (MDA-MB-435): > 100 µM
GI50 (MOLT-4 leukemia): 22.2 µM
TGI (MOLT-4 leukemia): 53.4 µM
GI50 (NCI-H226 lung): 58.5 µM
TGI (NCI-H226 lung): > 100 µM
GI50 (NCI-H23 lung): 25.1 µM
TGI (NCI-H23 lung): 61.1 µM
GI50 (NCI-H460 lung): > 100 µM
TGI (NCI-H460 lung): > 100 µM
GI50 (NCI-H522 lung): 60.1 µM
TGI (NCI-H522 lung): > 100 µM
GI50 (NCI/ADR-RES ovarian): > 100 µM
TGI (NCI/ADR-RES ovarian): > 100 µM
GI50 (OVCAR-3 ovarian): 59.2 µM
TGI (OVCAR-3 ovarian): > 100 µM
GI50 (OVCAR-4 ovarian): > 100 µM
TGI (OVCAR-4 ovarian): > 100 µM
GI50 (OVCAR-5 ovarian): 32.2 µM
TGI (OVCAR-5 ovarian): > 100 µM
GI50 (OVCAR-8 ovarian): 45.7 µM
TGI (OVCAR-8 ovarian): > 100 µM
GI50 (PC-3 prostate): 38.1 µM
TGI (PC-3 prostate): > 100 µM
GI50 (RPMI-8226 leukemia): 34 µM
TGI (RPMI-8226 leukemia): > 100 µM
GI50 (RXF 393 renal): 90.7 µM
TGI (RXF 393 renal): > 100 µM
GI50 (SF-268 CNS): > 100 µM
TGI (SF-268 CNS): > 100 µM
GI50 (SF-295 CNS): 31.7 µM
TGI (SF-295 CNS): > 100 µM
GI50 (SF-539 CNS): 44.6 µM
TGI (SF-539 CNS): > 100 µM
GI50 (SK-MEL-2 melanoma): > 100 µM
TGI (SK-MEL-2 melanoma): > 100 µM
GI50 (SK-MEL-28 melanoma): > 100 µM
TGI (SK-MEL-28 melanoma): > 100 µM
GI50 (SK-MEL-5 melanoma): 22.7 µM
TGI (SK-MEL-5 melanoma): 69.6 µM
GI50 (SK-OV-3 ovarian): > 100 µM
TGI (SK-OV-3 ovarian): > 100 µM
GI50 (SN12C renal): 49.6 µM
TGI (SN12C renal): > 100 µM
GI50 (SNB-19 CNS): 77 µM
TGI (SNB-19 CNS): > 100 µM
GI50 (SNB-75 CNS): > 100 µM
TGI (SNB-75 CNS): > 100 µM
GI50 (SW-620 colon): 38.5 µM
TGI (SW-620 colon): > 100 µM
GI50 (T-47D breast): > 100 µM
TGI (T-47D breast): > 100 µM
GI50 (U251 CNS): 36.3 µM
TGI (U251 CNS): > 100 µM
GI50 (UACC-257 melanoma): > 100 µM
TGI (UACC-257 melanoma): > 100 µM
GI50 (UACC-62 melanoma): 23.2 µM
TGI (UACC-62 melanoma): 58.4 µM
GI50 (UO-31 renal): > 100 µM
TGI (UO-31 renal): > 100 µM
